Calls of active or inactive are those of the source. The rule behind the calls is not given here.
Assays:
[1] = Drug level in Wistar Hannover rat CSF at 10 mg/kg, po after 2 hrs by UPLC-MS analysis; assay type: ADME, organism-based, Cerebrospinal fluid; settings: read-out: Drug uptake
Rattus norvegicus [2] = assay: In-vivo increase of CREB phosphorylation in membrane fraction of Wistar Hannover rat striatal tissues at 10 mg/kg, po after 2 hrs by Western blot analysis relative to control; assay type: functional, Striatum
Rattus norvegicus [3] = assay: Antipsychotic activity in Wistar Hannover rat assessed as increase in recognition at 0.3 mg/kg, po dosed 90 mins before identical objects by novel object recognition test; assay type: functional, organism-based
[4] = Total drug level in Wistar Hannover rat plasma at 30 mg/kg, po after 2 hrs by UPLC-MS analysis; assay type: ADME, organism-based
[5] = Unbound drug level in Wistar Hannover rat plasma at 0.1 mg/kg, po after 2 hrs by UPLC-MS analysis; assay type: ADME, organism-based; settings: in vivo
[6] = Total drug level in Wistar Hannover rat plasma at 0.3 mg/kg, po after 2 hrs by UPLC-MS analysis; assay type: ADME, organism-based
[7] = Mean drug level in plasma of Wistar Hannover rat at 10 mg/kg, po dosed as single dose after 4 hrs by UPLC-MS analysis; assay type: ADME, organism-based
[8] = Total drug level in Wistar Hannover rat plasma at 3 mg/kg, po after 2 hrs by UPLC-MS analysis; assay type: ADME, organism-based
Rattus norvegicus [9] = assay: Antipsychotic activity in Wistar Hannover rat assessed as reduction in MK-801-induced psychomotor activity at 1.5 to 4.5 mg/kg, po dosed 120 mins before MK-801 challenge and measured after 180 mins; assay type: functional, organism-based; settings: dose 1.5-4.5 mg/kg, time 300.0 min
[10] = Bioavailability in orally dosed dog after 2 hrs by UPLC-MS analysis; assay type: ADME, organism-based, Canis lupus familiaris; settings: in vivo, route po
Rattus norvegicus [11] = assay: Antipsychotic activity in Wistar Hannover rat assessed as increase in recognition at 1 mg/kg, po dosed 90 mins before identical objects by novel object recognition test; assay type: functional, organism-based
Rattus norvegicus [12] = assay: In-vivo increase of GluR1 S845 phosphorylation in membrane fraction of Wistar Hannover rat striatal tissues at 3 to 30 mg/kg, po after 2 hrs by Western blot analysis; assay type: functional, organism-based; settings: Striatum, dose 3-30 mg/kg
[13] = Unbound drug level in Wistar Hannover rat plasma at 30 mg/kg, po after 2 hrs by UPLC-MS analysis; assay type: ADME, organism-based; settings: in vivo
[14] = Drug level in Wistar Hannover rat CSF at 0.1 mg/kg, po after 2 hrs by UPLC-MS analysis; assay type: ADME, organism-based, Cerebrospinal fluid; settings: read-out: Drug uptake
[15] = Half life in orally dosed dog after 2 hrs by UPLC-MS analysis; assay type: ADME, organism-based, Canis lupus familiaris; settings: in vivo, route po
Rattus norvegicus [16] = assay: In-vivo increase of pGluR1/GluR1 ratios in membrane fraction of Wistar Hannover rat striatal tissues at 3 to 30 mg/kg, po after 2 hrs by Western blot analysis; assay type: functional, organism-based; settings: Striatum, dose 3-30 mg/kg
[17] = Bioavailability in orally dosed rhesus monkey after 4 hrs by UPLC-MS analysis; assay type: ADME, organism-based, Macaca mulatta; settings: in vivo, route po
Rattus norvegicus [18] = assay: Reduction in object exploration in Wistar Hannover rat at 1 mg/kg, po dosed 90 mins before identical objects by novel object recognition test; assay type: functional, organism-based
[19] = Unbound drug level in plasma of Wistar Hannover rat engaged in object retrieval detour task at 10 mg/kg, po dosed for 4 days prior to testing and on day 5 drug was administered orally 2 h prior to testing and measured after 4 hrs by UPLC-MS analysis; assay type: ADME, organism-based; settings: in vivo, 120 h, time 5 day
[20] = Unbound drug level in Wistar Hannover rat plasma at 3 mg/kg, po after 2 hrs by UPLC-MS analysis; assay type: ADME, organism-based; settings: in vivo
[21] = Total drug level in Wistar Hannover rat plasma at 1 mg/kg, po after 2 hrs by UPLC-MS analysis; assay type: ADME, organism-based
[22] = Unbound drug level in Wistar Hannover rat plasma at 0.3 mg/kg, po after 2 hrs by UPLC-MS analysis; assay type: ADME, organism-based; settings: in vivo
[23] = Bioavailability in orally dosed rat after 2 hrs by UPLC-MS analysis; assay type: ADME, organism-based; settings: in vivo, route po
Rattus norvegicus [24] = assay: Antipsychotic activity in Wistar Hannover rat assessed as reduction in MK-801-induced psychomotor activity at 3 mg/kg, po for 14 days followed by drug dosing at 3 mg/kg, po 120 mins before MK-801 challenge; assay type: functional, organism-based; settings: time 20280.0 min
Rattus norvegicus [25] = assay: Reduction in locomotor activity in Wistar Hannover rat at 1 mg/kg, po dosed 90 mins before identical objects by novel object recognition test; assay type: functional, organism-based
[26] = molecular target: T1, cAMP and cAMP-inhibited cGMP 3',5'-cyclic phosphodiesterase 10A (Rattus norvegicus, UniProt Q9QYJ6); assay: Inhibition of rat PDE10A2 assessed as inhibition of cAMP hydrolysis by fluorescence polarization assay
T1 sequence (Q9QYJ6 whole entry): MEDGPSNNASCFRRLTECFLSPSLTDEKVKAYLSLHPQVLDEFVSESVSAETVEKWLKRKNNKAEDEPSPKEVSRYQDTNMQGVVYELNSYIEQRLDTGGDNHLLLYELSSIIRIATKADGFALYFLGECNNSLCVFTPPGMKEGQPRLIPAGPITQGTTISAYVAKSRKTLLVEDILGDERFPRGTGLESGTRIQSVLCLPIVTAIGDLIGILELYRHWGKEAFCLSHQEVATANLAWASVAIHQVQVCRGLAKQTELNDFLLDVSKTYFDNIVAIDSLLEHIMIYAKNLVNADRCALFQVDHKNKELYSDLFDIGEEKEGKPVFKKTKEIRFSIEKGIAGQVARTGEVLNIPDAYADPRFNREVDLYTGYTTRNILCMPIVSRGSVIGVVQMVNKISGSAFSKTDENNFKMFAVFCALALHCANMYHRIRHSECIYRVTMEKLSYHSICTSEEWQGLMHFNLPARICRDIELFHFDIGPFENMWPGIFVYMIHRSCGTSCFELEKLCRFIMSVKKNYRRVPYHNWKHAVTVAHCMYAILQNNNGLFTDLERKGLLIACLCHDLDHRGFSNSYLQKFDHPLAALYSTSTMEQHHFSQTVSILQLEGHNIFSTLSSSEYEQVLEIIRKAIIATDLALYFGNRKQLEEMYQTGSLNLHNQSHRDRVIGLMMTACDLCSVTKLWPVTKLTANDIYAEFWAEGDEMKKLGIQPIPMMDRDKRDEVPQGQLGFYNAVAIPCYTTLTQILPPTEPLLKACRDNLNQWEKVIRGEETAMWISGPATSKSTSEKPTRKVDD

[27] = Clearance in orally dosed rat after 2 hrs by UPLC-MS analysis; assay type: ADME, organism-based; settings: in vivo, route po
[28] = Clearance in orally dosed rhesus monkey after 4 hrs by UPLC-MS analysis; assay type: ADME, organism-based, Macaca mulatta; settings: in vivo, route po

concentration at 2 h [1]: 16.1 nM
concentration at 2 h [4]: 1800 nM
Cp(f) [5]: 0.6 nM
concentration at 2 h [6]: 117 nM
concentration at 4 h [7]: 1530 nM
concentration at 2 h [8]: 745 nM
bioavailability [10]: 79%
Cp(f) [13]: 32.5 nM
concentration at 2 h [14]: 1 nM
half-life [15]: 7.2 h
bioavailability [17]: 31%
Cp(f) [19]: 19 nM
Cp(f) [20]: 13.4 nM
concentration at 2 h [21]: 270 nM
Cp(f) [22]: 2.1 nM
bioavailability [23]: 47%
Ki [26]: 1.3 nM
CL/F [27]: 6 mL/min/kg
CL/F [28]: 7.7 mL/min/kg
Structure (SMILES): COCCOc1nc(-c2ccc(Cl)nc2)nc2c1CN(C(=O)c1ncn3ccccc13)CC2 [THPP-1]
fold change (FC) (Rattus norvegicus [2]): 2.3
Activity (Rattus norvegicus [3]): Active
Activity (Rattus norvegicus [9]): Dose-Dependent Effect
Activity (Rattus norvegicus [11]): Active
Activity (Rattus norvegicus [12]): Dose-Dependent Effect
Activity (Rattus norvegicus [16]): Active
Activity (Rattus norvegicus [18]): Active
Activity (Rattus norvegicus [24]): Active
Activity (Rattus norvegicus [25]): Active
